# Assay results taken from patent US20050095278A1, “Use of nitroglycerin to relieve nocturnal muscle cramps” (priority 2003, published 2005).
# Tested on: patients with nocturnal leg muscle cramps
# Assay: Topically applied nitroglycerin (transdermal patch) in ten patients with nocturnal leg muscle cramps
# Format: in vivo, human
# Excerpt: The following Examples show the successful use of topically applied nitroglycerin in treating ten patients with nocturnal leg muscle cramps.
structure (smiles),measurement,setting,value
O=[N+]([O-])OCC(CO[N+](=O)[O-])O[N+](=O)[O-] [nitroglycerin],relief in the frequency and severity of nocturnal muscle cramping (summary of the ten patients),"small amounts of nitroglycerin, even once daily",moderate to significant relief
same,relieving pain and cramping associated with nocturnal muscle cramps (observation),topically applied by a transdermal patch to the lower extremity,effective in relieving pain and cramping
same,relief of pain and cramping associated with muscle cramps (early studies),transdermal delivery at a rate of about 0.1 mg/hr,sufficient for relief of pain and cramping
